For one data set, the target named is T1, H2 (Homo sapiens, UniProt P25021).
T1 construct: purchased NIMH Psychoactive Drug Screening Program (PDSP)
In words: PDSP primary binding H2. As to conditions: primary binding, 10,000 nM; last figure of the line = mean of the 4 before it; read-out: H2, PDSP raw data, mean. The procedure: (§1) To determine if any off-target receptor-binding effects are present, all the novel ligands were sent to the National Institute of Mental Health (NIMH), Psychoactive Drug Screening Program (PDSP). The ligands were screened over a panel of 47 receptors, ion channels, and transporters to determine any other possible interactions with […]. The hERG-binding was also determined. […] No binding of the test compounds to calcium channels was observed. […] It is necessary to screen the compounds for hERG-binding during the early process of drug discovery. The unintentional binding of many drugs to hERG can cause blockade of hERG K+ channels in the heart, which can cause many side effects including cardiac arrhythmias and sudden death. […] All of the α5 imidazodiazepines were tested for hERG-binding.
(§2) The NIMH PDSP assay protocol book [https://kidbdev.med.unc.edu/databases/PDSP%20Protocols%20II%202013-03-28.pdf accessed on 23 April 2023]. describes the protocols for primary and secondary radio-ligand binding assays. These assays were carried out in a final volume of 125 µL per well in the appropriate binding buffer.
(§3) The binding of a ligand to a receptor, ion channel, or transporter was determined in the […] of 10 µM of the appropriate reference compound. […] Plates were incubated in the dark for 90 min at rt, and the reactions were stopped by vacuum filtration onto 0.3% polyethyleneimine (PEI) soaked 96-well filter mats using a 96-well Filtermateharvester. This was followed by three washes with cold PBS buffer. Radioactivity was then counted on a Microbeta counter. Nonlinear regression was used to analyze the data with N = 6 replicates.

The target of the next data set is T2, V1A (Homo sapiens, UniProt P37288).
T2 construct: purchased NIMH Psychoactive Drug Screening Program (PDSP)
In words: PDSP primary binding V1A. The conditions noted are these: primary binding, 10,000 nM; last figure of the line = mean of the 4 before it; read-out: V1A, PDSP raw data, mean. The procedure:
as §1, §2, §3

The next data set concerns Kainate (Rat Brain). In words: PDSP primary binding Kainate (Rat Brain). The conditions noted are these: primary binding, 10,000 nM; last figure of the line = mean of the 4 before it. The procedure: as §1, §2, §3
A further data set concerns the target T3, 5-HT1D (Homo sapiens, UniProt P28221).
T3 construct: purchased NIMH Psychoactive Drug Screening Program (PDSP)
In words: PDSP primary binding 5-HT1D. The conditions noted are these: 1.5 h; primary binding, 10,000 nM; last figure of the line = mean of the 4 before it; read-out: 5-HT1D, PDSP raw data, mean. The procedure: as §1, §2, §3

Another data set has as its target T4, hERG channels (Homo sapiens, UniProt Q12809).
T4 construct: purchased NIMH Psychoactive Drug Screening Program (PDSP)
The data set can be described thus: PDSP radioligand binding at hERG. As to conditions: primary binding, 10,000 nM; last figure of the line = mean of the 4 before it. The method, then:
as §1, §2, §3
For orientation: Block of hERG is tested as a sign of cardiac risk.

The next data set addresses T5, Alpha1B (Homo sapiens, UniProt P35368).
T5 construct: purchased NIMH Psychoactive Drug Screening Program (PDSP)
T5 sequence (P35368 1-520): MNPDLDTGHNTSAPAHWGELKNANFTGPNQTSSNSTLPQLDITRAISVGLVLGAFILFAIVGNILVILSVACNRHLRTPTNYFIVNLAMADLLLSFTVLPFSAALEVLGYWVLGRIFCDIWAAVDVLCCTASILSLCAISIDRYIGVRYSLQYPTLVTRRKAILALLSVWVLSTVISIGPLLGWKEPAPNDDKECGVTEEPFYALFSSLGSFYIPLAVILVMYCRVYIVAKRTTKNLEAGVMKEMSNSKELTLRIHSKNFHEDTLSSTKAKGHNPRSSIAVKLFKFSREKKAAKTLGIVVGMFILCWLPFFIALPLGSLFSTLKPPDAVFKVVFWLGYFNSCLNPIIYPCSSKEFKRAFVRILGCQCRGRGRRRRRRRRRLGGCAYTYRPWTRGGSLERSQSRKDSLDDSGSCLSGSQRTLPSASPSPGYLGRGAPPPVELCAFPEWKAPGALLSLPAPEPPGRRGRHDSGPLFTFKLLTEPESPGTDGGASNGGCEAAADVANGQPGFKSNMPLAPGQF
The data set can be described thus: PDSP primary binding Alpha1B. As to conditions: 1.5 h; primary binding, 10,000 nM; last figure of the line = mean of the 4 before it; read-out: Alpha1B, PDSP raw data, mean. The procedure: as §1, §2, §3

For the next data set, the target named is T6, Alpha1A (Homo sapiens, UniProt P35348).
T6 construct: purchased NIMH Psychoactive Drug Screening Program (PDSP)
T6 sequence (P35348 1-466): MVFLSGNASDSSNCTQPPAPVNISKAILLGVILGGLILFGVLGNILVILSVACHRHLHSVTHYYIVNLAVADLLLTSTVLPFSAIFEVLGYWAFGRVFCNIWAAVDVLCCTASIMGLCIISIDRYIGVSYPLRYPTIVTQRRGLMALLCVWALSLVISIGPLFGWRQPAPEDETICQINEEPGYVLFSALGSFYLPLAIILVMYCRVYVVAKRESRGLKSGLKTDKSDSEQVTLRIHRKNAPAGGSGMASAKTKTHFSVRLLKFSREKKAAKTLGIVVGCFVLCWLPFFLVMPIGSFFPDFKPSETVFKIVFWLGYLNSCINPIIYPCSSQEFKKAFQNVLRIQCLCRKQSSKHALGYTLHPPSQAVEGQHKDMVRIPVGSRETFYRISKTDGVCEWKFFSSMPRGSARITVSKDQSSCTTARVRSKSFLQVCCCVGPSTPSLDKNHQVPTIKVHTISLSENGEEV
In words: PDSP primary binding Alpha1A. As to conditions: 1.5 h; primary binding, 10,000 nM; last figure of the line = mean of the 4 before it; read-out: Alpha1A, PDSP raw data, mean. The method, then: as §1, §2, §3

The target in another data set is T7, A1 (Homo sapiens, UniProt P30542).
T7 construct: purchased NIMH Psychoactive Drug Screening Program (PDSP)
T7 sequence (P30542 1-326): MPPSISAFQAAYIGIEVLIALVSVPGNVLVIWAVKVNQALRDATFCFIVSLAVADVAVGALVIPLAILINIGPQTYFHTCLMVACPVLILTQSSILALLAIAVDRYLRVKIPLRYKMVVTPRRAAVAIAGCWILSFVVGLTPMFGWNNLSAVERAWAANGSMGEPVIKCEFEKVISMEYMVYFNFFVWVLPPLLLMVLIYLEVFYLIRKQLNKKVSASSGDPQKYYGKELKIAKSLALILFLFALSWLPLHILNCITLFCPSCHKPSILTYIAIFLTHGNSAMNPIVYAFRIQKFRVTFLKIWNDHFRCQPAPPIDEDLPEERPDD
The data set can be described thus: PDSP primary binding A1. The conditions noted are these: 1.5 h; primary binding, 10,000 nM; last figure of the line = mean of the 4 before it; read-out: A1, PDSP raw data, mean. The method, then:
as §1, §2, §3

The next data set concerns the target T8, Alpha4Beta2 (Rat Brain) (Rattus norvegicus, UniProt P09483+P12390).
T8 construct: purchased NIMH Psychoactive Drug Screening Program (PDSP)
In words: PDSP primary binding Alpha4Beta2 (Rat Brain). The conditions noted are these: primary binding, 10,000 nM; last figure of the line = mean of the 4 before it; read-out: Alpha4Beta2 (Rat Brain), PDSP raw data, mean. The procedure:
as §1, §2, §3

The target in the next data set is T9, A2A (Homo sapiens, UniProt P29274).
T9 construct: purchased NIMH Psychoactive Drug Screening Program (PDSP)
The data set can be described thus: PDSP primary binding A2A. The conditions noted are these: primary binding, 10,000 nM; last figure of the line = mean of the 4 before it. The procedure:
as §1, §2, §3

T4 sequence (Q12809 whole entry): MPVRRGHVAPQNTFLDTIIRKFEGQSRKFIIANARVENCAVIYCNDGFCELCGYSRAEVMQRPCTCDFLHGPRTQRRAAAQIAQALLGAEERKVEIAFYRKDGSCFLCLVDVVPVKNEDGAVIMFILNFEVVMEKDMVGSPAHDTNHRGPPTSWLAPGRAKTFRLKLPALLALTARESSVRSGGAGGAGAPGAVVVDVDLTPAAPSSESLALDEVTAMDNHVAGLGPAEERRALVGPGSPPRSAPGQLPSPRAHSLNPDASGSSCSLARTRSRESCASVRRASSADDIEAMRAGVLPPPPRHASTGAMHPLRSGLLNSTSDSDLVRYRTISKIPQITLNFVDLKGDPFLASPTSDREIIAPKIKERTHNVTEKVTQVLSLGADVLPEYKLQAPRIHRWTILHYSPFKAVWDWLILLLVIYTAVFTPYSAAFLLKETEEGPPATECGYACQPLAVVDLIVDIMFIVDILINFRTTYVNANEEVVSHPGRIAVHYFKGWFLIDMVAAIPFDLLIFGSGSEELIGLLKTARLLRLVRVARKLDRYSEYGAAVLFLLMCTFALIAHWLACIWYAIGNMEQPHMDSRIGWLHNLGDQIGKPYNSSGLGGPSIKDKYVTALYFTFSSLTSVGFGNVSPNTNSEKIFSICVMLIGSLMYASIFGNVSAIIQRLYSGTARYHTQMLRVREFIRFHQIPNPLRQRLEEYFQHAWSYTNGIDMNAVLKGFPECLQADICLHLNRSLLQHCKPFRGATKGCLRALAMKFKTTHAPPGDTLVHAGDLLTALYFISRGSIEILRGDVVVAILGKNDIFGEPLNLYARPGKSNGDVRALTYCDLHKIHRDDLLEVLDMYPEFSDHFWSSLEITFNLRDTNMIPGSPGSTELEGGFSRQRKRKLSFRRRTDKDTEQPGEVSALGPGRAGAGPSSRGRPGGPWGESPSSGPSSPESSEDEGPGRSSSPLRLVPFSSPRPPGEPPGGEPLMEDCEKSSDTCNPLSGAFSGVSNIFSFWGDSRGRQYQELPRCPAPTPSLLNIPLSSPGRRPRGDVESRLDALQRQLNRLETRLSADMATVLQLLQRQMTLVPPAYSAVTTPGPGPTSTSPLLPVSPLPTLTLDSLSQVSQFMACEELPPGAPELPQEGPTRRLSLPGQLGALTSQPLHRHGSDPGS
T2 sequence (P37288 whole entry): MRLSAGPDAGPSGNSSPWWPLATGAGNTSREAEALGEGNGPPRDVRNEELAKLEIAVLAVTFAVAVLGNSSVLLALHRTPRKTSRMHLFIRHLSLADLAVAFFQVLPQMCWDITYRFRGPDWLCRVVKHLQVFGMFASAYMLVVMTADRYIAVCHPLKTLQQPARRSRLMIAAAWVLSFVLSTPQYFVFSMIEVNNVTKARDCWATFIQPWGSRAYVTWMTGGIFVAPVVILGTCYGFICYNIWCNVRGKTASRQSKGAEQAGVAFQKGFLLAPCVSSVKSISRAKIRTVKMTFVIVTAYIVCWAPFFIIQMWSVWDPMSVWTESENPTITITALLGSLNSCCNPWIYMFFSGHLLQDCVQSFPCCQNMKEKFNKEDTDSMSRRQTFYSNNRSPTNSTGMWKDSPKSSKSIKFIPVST
T1 sequence (P25021 whole entry): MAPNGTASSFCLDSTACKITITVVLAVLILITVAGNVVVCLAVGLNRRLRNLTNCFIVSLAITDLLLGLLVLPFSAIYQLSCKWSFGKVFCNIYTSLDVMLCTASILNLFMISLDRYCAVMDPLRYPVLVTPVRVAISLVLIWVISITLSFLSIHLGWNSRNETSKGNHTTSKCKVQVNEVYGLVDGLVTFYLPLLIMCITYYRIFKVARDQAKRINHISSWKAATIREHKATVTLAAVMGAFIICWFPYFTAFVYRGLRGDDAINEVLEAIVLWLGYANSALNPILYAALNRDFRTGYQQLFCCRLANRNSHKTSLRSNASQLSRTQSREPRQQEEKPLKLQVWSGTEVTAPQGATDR
T9 sequence (P29274 whole entry): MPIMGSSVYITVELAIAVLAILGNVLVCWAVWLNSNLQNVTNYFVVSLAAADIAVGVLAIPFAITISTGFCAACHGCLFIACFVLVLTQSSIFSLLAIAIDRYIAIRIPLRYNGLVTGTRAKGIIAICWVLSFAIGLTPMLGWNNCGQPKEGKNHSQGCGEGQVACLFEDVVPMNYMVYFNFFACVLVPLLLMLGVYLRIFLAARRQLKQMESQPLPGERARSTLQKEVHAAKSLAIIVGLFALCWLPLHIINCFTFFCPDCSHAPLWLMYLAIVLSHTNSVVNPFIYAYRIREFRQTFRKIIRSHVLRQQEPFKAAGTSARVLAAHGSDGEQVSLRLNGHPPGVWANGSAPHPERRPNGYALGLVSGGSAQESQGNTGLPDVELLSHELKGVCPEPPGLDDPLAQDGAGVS
T8 sequence (P09483 31-630): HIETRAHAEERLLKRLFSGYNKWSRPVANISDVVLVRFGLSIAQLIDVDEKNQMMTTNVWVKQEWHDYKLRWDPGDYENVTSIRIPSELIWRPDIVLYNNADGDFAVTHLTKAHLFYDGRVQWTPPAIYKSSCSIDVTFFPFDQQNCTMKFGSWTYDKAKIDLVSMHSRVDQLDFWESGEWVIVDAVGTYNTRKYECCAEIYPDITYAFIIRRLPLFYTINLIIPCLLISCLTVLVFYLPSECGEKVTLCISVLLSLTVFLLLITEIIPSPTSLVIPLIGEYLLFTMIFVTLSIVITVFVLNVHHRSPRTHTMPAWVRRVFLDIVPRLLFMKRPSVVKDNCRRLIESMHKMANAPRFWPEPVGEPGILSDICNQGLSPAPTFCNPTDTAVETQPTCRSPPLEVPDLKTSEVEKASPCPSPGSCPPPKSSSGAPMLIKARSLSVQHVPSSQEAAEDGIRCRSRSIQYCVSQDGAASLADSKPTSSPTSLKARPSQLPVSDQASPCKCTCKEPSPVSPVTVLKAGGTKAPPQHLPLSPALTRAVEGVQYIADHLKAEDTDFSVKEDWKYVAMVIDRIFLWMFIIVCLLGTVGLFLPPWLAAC
T8 sequence (P12390 25-500): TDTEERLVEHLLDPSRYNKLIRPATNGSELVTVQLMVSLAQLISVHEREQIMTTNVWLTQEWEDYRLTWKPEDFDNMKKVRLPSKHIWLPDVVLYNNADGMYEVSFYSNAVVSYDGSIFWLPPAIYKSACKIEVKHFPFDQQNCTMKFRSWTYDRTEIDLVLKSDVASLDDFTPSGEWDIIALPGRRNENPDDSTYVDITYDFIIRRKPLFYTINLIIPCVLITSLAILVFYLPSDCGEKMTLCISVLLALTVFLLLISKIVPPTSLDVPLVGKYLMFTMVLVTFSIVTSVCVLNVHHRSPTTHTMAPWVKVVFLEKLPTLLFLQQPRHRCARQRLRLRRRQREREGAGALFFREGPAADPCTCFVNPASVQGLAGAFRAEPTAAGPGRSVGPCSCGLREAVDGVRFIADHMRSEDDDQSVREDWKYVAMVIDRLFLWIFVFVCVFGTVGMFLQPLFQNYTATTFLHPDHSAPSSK
T3 sequence (P28221 whole entry): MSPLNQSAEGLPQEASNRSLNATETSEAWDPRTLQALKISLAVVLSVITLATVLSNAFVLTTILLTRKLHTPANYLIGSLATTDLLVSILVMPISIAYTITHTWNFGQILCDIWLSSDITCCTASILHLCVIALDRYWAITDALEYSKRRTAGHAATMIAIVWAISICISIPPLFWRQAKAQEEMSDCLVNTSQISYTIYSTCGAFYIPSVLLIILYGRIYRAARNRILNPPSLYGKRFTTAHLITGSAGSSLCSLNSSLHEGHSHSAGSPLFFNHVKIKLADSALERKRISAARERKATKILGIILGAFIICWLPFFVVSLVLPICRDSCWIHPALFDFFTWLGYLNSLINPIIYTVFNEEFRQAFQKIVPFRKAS

Regarding `C#Cc1ccc2c(c1)C(c1ccccc1Cl)=N[C@H](C)c1c(C(=O)N(C)CC)ncn1-2` [Compound 29], the inhibition at 10 µM on H2 is -0.28%; on V1A, 8.93%; at 5-HT1D, -13.1%; on Alpha1B, 19.8%; at Alpha1A, 4.97%; on A1, -6.38%. The inhibition at 10 µM at Alpha4Beta2 (Rat Brain) came to 0.03%. In addition, the “Kainate (Rat Brain), PDSP raw data, mean” value with Kainate (Rat Brain) stood at 16.79%. The “HERG, PDSP raw data, mean” value on hERG channels is on record as -1.55%. Also, on A2A, the “A2A, PDSP raw data, mean” value was -10.24%.

As for `CCc1noc(-c2ncn3c2[C@@H](C)N=C(c2ccccc2F)c2cc(-c4ccccc4)ccc2-3)n1` [Compound 35, (R)-3-Ethyl-5-(6-(2′-fluorophenyl)-4-methyl-8-phenyl-4H-benzo[f]imidazo[1,5-a][1,4]diazepin-3-yl)-1,2,4-oxadiazole], the inhibition at 10 µM was -10.1% at H2; 3.9% on V1A; 6.66% on 5-HT1D; 8.69% on Alpha1B; 20.8% on Alpha1A; 27.1% at A1. For the same molecule, the inhibition at 10 µM at Alpha4Beta2 (Rat Brain) is -11.6%. Moreover, the “Kainate (Rat Brain), PDSP raw data, mean” value in the data set on Kainate (Rat Brain) stood at 33.32%. Besides, at hERG channels, the “HERG, PDSP raw data, mean” value worked out at 37.34%. Further, the “A2A, PDSP raw data, mean” value at A2A is recorded as 19.84%.

Regarding `C#Cc1ccc2c(c1)C(c1ccccn1)=N[C@@H](C)c1c(C(=O)N(C)C)ncn1-2` [Compound 31, (S)-8-Ethynyl-N,N,4-trimethyl-6-(pyridin-2′-yl)-4H-benzo[f]imidazo[1,5-a][1,4]diazepine-3-carboxamide], the inhibition at 10 µM at H2 is -12.1%; at V1A, 3.6%; on 5-HT1D, -15%; on Alpha1B, 11%; at Alpha1A it was -10.5%; on A1, 32.2%. The inhibition at 10 µM at Alpha4Beta2 (Rat Brain) was found to be 2.48%. Further, in the data set on Kainate (Rat Brain), the “Kainate (Rat Brain), PDSP raw data, mean” value is 23.99%. For the same molecule, the “HERG, PDSP raw data, mean” value on hERG channels is 0.95%. The “A2A, PDSP raw data, mean” value at A2A is recorded as -10.83%.

`CC(C)c1noc(-c2ncn3c2[C@@H](C)N=C(c2ccccc2F)c2cc(Cl)ccc2-3)n1` [Compound 37, (R)-5-(8-Chloro-6-(2′-fluorophenyl)-4-methyl-4H-benzo[f]imidazo[1,5-a][1,4]diazepin-3-yl)-3-isopropyl-1,2,4-oxadiazole]: the inhibition at 10 µM was 1.66% on H2; -10.1% at V1A; 9.73% on 5-HT1D; 4.27% at Alpha1B; -8.38% at Alpha1A; 52.2% at A1. Also, the inhibition at 10 µM on Alpha4Beta2 (Rat Brain) was -0.61%. In the data set with Kainate (Rat Brain), the “Kainate (Rat Brain), PDSP raw data, mean” value came out at 35.39%. Also, the “HERG, PDSP raw data, mean” value on hERG channels worked out at 20.73%. Also, at A2A, the “A2A, PDSP raw data, mean” value was -1.87%.

For the molecule `C#Cc1ccc2c(c1)C(c1ccccn1)=N[C@@H](C)c1c(C(=O)NC)ncn1-2` [Compound 23, (S)-8-Ethynyl-N,4-dimethyl-6-(pyridin-2′-yl)-4H-benzo[f]imidazo[1,5-a][1,4]diazepine-3-carboxamide], the inhibition at 10 µM was -23.3% on H2; 25.4% at V1A; -15.1% on 5-HT1D; 22.2% on Alpha1B; -5.28% on Alpha1A; 10.4% on A1. The inhibition at 10 µM on Alpha4Beta2 (Rat Brain) amounted to 2.71%. For the same molecule, the “Kainate (Rat Brain), PDSP raw data, mean” value in the data set on Kainate (Rat Brain) is 37.08%. Also, the “HERG, PDSP raw data, mean” value on hERG channels is recorded as -4.24%. The “A2A, PDSP raw data, mean” value on A2A is listed as -9.74%.
